Article PMC11696430, “A Water-Soluble Small Molecule Boron Carrier Targeting Biotin Receptors for Neutron Capture Therapy” (ACS Omega, 2024)

Columns and labels:
MTT cytotoxicity assay [1] = settings: human, U87MG cells (human glioblastoma)
Method: (§1) Human lung carcinoma (A549), mouse melanoma (B16), mouse colon carcinoma (CT26), human breast adenocarcinoma (MDA-MB-231), and human glioblastoma (U87MG) cell lines were maintained in Roswell Park Memorial Institute (RPMI)-1640 medium (Fujifilm Wako Pure Chemicals Co., Ltd., Japan) supplemented with 10% heat-inactivated fetal bovine serum (Thermo Fisher Scientific, Inc.) and 1% penicillin/streptomycin (final concentrations: 100 units/mL penicillin G and 10 μg/mL streptomycin; Thermo Fisher Scientific, Inc.). The cells were cultured at 37 °C in a humidified incubator with 5% CO2. For experiments, A549, B16, CT26, MDA-MB-231, and U87MG cells were seeded into 96-well plates at a density of 1000 cells per well. […] Following treatment, 0.5 mg/mL 3-(4,5-dimethylthiazol-2-yl)-2,5-diphenyltetrazolium bromide (MTT; Tokyo Chemical Industry Co., Ltd., Japan) was added to each well, and the plates were incubated for 4 h at 37 °C. After incubation, the medium was carefully removed, and the resulting MTT formazan product was dissolved in 100 μL of dimethyl sulfoxide (DMSO). The absorbance of the solution was measured at 590 nm using a microplate reader. The half-maximal inhibitory concentration (IC50) for each compound was calculated from semilogarithmic dose–response curves.

MTT cytotoxicity assay [2] = settings: mouse, CT26 cells (mouse colon carcinoma)
Method: as §1

MTT cytotoxicity assay [3] = settings: human, A549 cells (human lung carcinoma)
Method: as §1

CT26 tumor-bearing mice = assay: BNCT efficacy in CT26 tumor-bearing mice; assay type: in vivo, mouse; settings: i.v. 15 mg [10B]/kg, neutron irradiation 3 h later
Method: Figure 4 (A–D) Biodistribution of boron in the CT26-bearing mice at 3, 6, and 12 h post- intravenous injection of (A) BBC-IP, (B) BBC, (C) BBC-IP-HSA and (D) BPA at the dose of 15 mg [B]/kg. The data are shown as mean ± SEM (n = 3–4). (E, F) BNCT of the CT26 tumor-bearing mice intravenously injected with 15 mg [^10B]/kg of BBC-IP-HSA and BPA. (E) The tumor volume curves after thermal neutron irradiation (also see Figure S5, Supporting Information). (F) Mice body weight corresponding to the treatments in panel (E). Results are shown as the mean ± SEM (n = 5 for the groups with BBC-IP-HSA, BPA and no treatment, n = 4 for the groups with neutron only). The two-sided Student’s t-test was applied to determine statistical significance, defined as *p < 0.05, **p < 0.0001.
CT26 tumor-bearing mice were prepared by subcutaneously injecting a suspension of CT26 cells (8.0 × 10^5 cells/mouse) into the right thigh. […] The BNCT effects were assessed based on tumor volume changes. Tumor volume was calculated using the formula 0.5 × (A × B^2), where A and B represent the longest and shortest tumor diameters in millimeters, respectively. […]
(B) Body weight of the same mice treated in panel A. (C) The tumor volume curves of the individual mice after irradiation with thermal neutron. […] Significance was determined as: *p < 0.05, **p < 0.0001 using the two-sided […]

CT26 cells = assay: Biotin competition cellular uptake assay; assay type: cell-based, mouse; settings: CT26, biotin 772 μM to 3.09 mM, 24 h
Method: Figure 3 (A) Time-course evaluation of cellular uptake for BBC-IP, BBC, and BPA in A549, B16, CT26, MDA-MB-231, and U87MG cells. Compounds were incubated for 2.5, 6, and 24 h in cells, and boron concentration was measured using inductively coupled plasma optical emission spectroscopy (ICP-OES) after ashing with conc. HNO3. Data are shown as the mean ± SEM from a single experiment conducted in triplicate. (B) Biotin concentration-dependent cell uptake study of BBC-IP, BBC and BPA in CT26 cells. Boron concentration was determined after incubation with compounds at various concentrations of biotin for 24 h. (C) Intracellular distribution of BBC-IP in CT26 cells. Cells were incubated with BBC-IP (ca. 25 μg [B]/mL) for 3 h, followed by […] using an anti-closo-dodecaborate antibody and lysosomal staining with Lysotracker. Red: lysosomes stained with LysoTracker Red DND-99; Green: BBC-IP localization; Blue: nuclei stained with DAPI. Scale bars: 25 μm. (D) Intracellular distribution of BPA in CT26 cell lines. Cells were incubated with BPA (ca. 25 μg [B]/mL) for 3 h, followed by fluorescent modification with a boron sensor,[24] nucleus staining with NucleoSeeing and lysosomal staining with a lysotracker. […] The cells were incubated for another 24 h, harvested using a cell scraper, and counted. […]

MTT cytotoxicity assay [4] = settings: mouse, B16 cells (mouse melanoma)
Method: as §1

MTT cytotoxicity assay [5] = settings: human, MDA-MB-231 cells (human breast adenocarcinoma)
Method: as §1

[6] = stated in Introduction without reference; cited from earlier work
[7] = system: B16 (mouse melanoma) cells
Method: as §1

[8] = system: CT26 (mouse colon carcinoma) cells
Method: as §1

[9] = system: U87MG (human glioblastoma) cells
Method: as §1

[10] = system: MDA-MB-231 (human breast adenocarcinoma) cells
Method: as §1

[11] = system: A549 (human lung carcinoma) cells
Method: as §1

[12] = biological target: human serum albumin (HSA) (Homo sapiens, UniProt P02768); set-up: method as in PMID 38770220; settings: ELISA, Figure S1; stated as previously reported value; read-out: dissociation constant (Kd) to HSA; cited from earlier work
Chain of human serum albumin (HSA) (P02768 25-609): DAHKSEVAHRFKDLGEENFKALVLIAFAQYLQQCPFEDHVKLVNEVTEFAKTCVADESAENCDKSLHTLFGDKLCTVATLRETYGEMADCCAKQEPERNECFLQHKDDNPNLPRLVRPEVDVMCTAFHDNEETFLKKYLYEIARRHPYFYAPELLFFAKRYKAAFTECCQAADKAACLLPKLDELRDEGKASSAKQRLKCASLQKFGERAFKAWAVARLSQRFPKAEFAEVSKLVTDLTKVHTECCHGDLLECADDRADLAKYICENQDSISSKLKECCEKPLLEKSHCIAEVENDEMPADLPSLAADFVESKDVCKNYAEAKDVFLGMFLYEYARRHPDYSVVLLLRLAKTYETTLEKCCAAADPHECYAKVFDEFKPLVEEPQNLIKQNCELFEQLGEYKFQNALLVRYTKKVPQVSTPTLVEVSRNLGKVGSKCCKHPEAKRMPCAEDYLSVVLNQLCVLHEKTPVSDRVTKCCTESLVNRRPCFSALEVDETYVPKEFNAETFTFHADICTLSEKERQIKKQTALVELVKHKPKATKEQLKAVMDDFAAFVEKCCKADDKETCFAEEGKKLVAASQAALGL

## N[C@@H](Cc1ccc(B(O)O)cc1)C(=O)O [BPA, 4-borono-L-phenylalanine, reference compound]
MTT cytotoxicity assay [1]
  IC50 at 72 h: > 1 mM
MTT cytotoxicity assay [2]
  IC50 at 72 h: > 1 mM
MTT cytotoxicity assay [3]
  IC50 at 72 h: > 1 mM
CT26 tumor-bearing mice; 20-day monitoring
  antitumor efficacy / tumor growth compared between agents: significantly higher antitumor efficacy than BBC-IP-HSA
CT26 tumor-bearing mice; 20 days after irradiation
  tumor suppression versus neutron-only group: significantly greater tumor suppression compared to the neutron-only group
CT26 cells
  decrease of accumulation under biotin competitive conditions (up to): largely unaffected
MTT cytotoxicity assay [4]
  IC50 at 72 h: 910 ± 130 µM
MTT cytotoxicity assay [5]
  IC50 at 72 h: > 1 mM

## O=C(O)CCCC[C@@H]1SC[C@@H]2NC(=O)N[C@@H]21 [biotin]
[6]
  water solubility: approximately 0.9 mM

## biotin-closo-dodecaborate conjugate [BBC]
[7]
  IC50: > 1 mM
[8]
  IC50: > 1 mM
[9]
  IC50: > 1 mM
[10]
  IC50: > 1 mM
CT26 cells
  decrease of accumulation under biotin competitive conditions (up to): ~20%
[11]
  IC50: > 1 mM

## pteroyl-closo-dodecaborate conjugated with a 4-(p-iodophenyl)butyric acid moiety [PBC-IP]
[12]
  Kd: 11.7 ± 0.8 µM
